Measured values: PubChem BioAssay AID1259408 (Genetic Toxicology Data Bank (GENE-TOX), 2018)
Activity calls are given as the source filed them. The rule behind the calls is not given here.

Test system: GENE-TOX genotoxicity assays, various organisms and cells
Test: GENE-TOX mutagenicity studies
Conditions: for call: Assay Type: In vivo carcinogenicity studies
[1] = Species/Cell Type: Human lymphocytes, Assay Type: Sister-chromatid exchange (SCE) in vivo, Assay Code: SCY+, Evaluation Type: Evaluation B (Post-1980)
[2] = Species/Cell Type: Human, Assay Type: Sister-chromatid exchange (SCE) in vitro, Assay Code: SC1T, Evaluation Type: Evaluation B (Post-1980)
[3] = Species/Cell Type: Salmonella typhimurium (one or more of the five standard strains: TA98, TA100, TA1535, TA1537, and TA1538), Assay Type: Histidine reverse gene mutation, Ames assay, Assay Code: SALT, Evaluation Type: Evaluation A (Pre-1980)
[4] = Species/Cell Type: Saccharomyces cerevisiae, Assay Type: Mitotic recombination or gene conversion, Assay Code: YEC+, Evaluation Type: Evaluation A (Pre-1980)
[5] = Species/Cell Type: Rodents, Sex: Male, Assay Type: Dominant lethal test, Assay Code: DLTT, Evaluation Type: Evaluation A (Pre-1980)
[6] = Species/Cell Type: Chinese hamster ovary (CHO) cells, Assay Type: Forward gene mutation at the HPRT locus, Assay Code: CHO+, Evaluation Type: Evaluation B (Post-1980)
[7] = Species/Cell Type: Nonhuman, Assay Code: CCG+, Evaluation Type: Evaluation A (Pre-1980)
[8] = Species/Cell Type: Nonhuman, Assay Type: Sister-chromatid exchange (SCE) in vitro, Assay Code: SC2+, Evaluation Type: Evaluation B (Post-1980)
[9] = Species/Cell Type: Human lymphocytes, Assay Type: Sister-chromatid exchange (SCE) in vitro, Assay Code: SCLT, Evaluation Type: Evaluation B (Post-1980)
[10] = Species/Cell Type: Bacillus subtilis (H17 vs M45), Assay Type: Rec-assay, spot test, DNA effects (bacterial DNA repair), Assay Code: REW+, Evaluation Type: Evaluation A (Pre-1980)
[11] = Species/Cell Type: Salmonella typhimurium (one or more of the five standard strains: TA98, TA100, TA1535, TA1537, and TA1538), Assay Type: Histidine reverse gene mutation, Ames assay, Assay Code: SAL+, Evaluation Type: Evaluation A (Pre-1980)
[12] = Species/Cell Type: Salmonella typhimurium (one or more of the five standard strains: TA98, TA100, TA1535, TA1537, and TA1538), Assay Type: Histidine reverse gene mutation, Ames assay, Assay Code: SAL+*, Activation: With metabolic activation, Evaluation Type: Evaluation A (Pre-1980)
[13] = Species/Cell Type: Drosophila melanogaster, Assay Type: Sex-linked recessive lethal gene mutation, Assay Code: SRLT, Evaluation Type: Evaluation A (Pre-1980)
[14] = Species/Cell Type: Nonhuman, Assay Type: Sister-chromatid exchange (SCE) in vitro, Assay Code: SC2T, Evaluation Type: Evaluation B (Post-1980)

## NC[C@H]1O[C@H](O[C@H]2[C@H](O[C@@H]3O[C@H](CO)[C@@H](O)[C@H]3O)[C@@H](O)[C@H](N)C[C@@H]2N)[C@H](N)[C@@H](O)[C@@H]1O
Species/Cell Type: Saccharomyces cerevisiae, Assay Type: Mitotic recombination or gene conversion, Assay Code: YEH-, Evaluation Type: Evaluation A (Pre-1980)
  mutagenic call: inactive; negative

## CN1C(=O)CN=C(c2ccccc2)c2cc(Cl)ccc21
[1]
  mutagenic call: active; positive
[2]
  mutagenic call: no conclusion
Species/Cell Type: Mammalian polychromatic erythrocytes, Assay Type: Micronucleus test, chromosome aberrations, Assay Code: MNTT, Evaluation Type: Evaluation A (Pre-1980)
  mutagenic call: no conclusion
[3]
  mutagenic call: no conclusion
Species/Cell Type: Salmonella typhimurium, Assay Type: Forward and reverse gene mutation, body fluid assay, Assay Code: BFU+, Evaluation Type: Evaluation A (Pre-1980)
  mutagenic call: active; positive

## O=C1OC2(c3cc(Br)c(O)cc3Oc3c2cc(Br)c(O)[c]3[Hg])c2ccccc21 (stereo unspecified)
Species/Cell Type: Saccharomyces cerevisiae, Assay Type: Aneuploidy, chromosome aberrations, Assay Code: YEN+, Evaluation Type: Evaluation A (Pre-1980)
  mutagenic call: active; positive
[4]
  mutagenic call: active; positive

## ClC1=C(Cl)C2(Cl)C3C(Cl)C(Cl)CC3C1(Cl)C2(Cl)Cl (stereo unspecified)
Species/Cell Type: Chinese hamster lung (V79) cells, Assay Type: Forward gene mutation at the HPRT or ouabain locus, Assay Code: V79+, Evaluation Type: Evaluation A (Pre-1980)
  mutagenic call: active; positive
Species/Cell Type: Nonhuman, Assay Code: CCG+L, Evaluation Type: Evaluation A (Pre-1980)
  call: active; positive
[5]
  mutagenic call: no conclusion
Species/Cell Type: Zea mays (corn), Assay Type: Gene mutation, Assay Code: ZEM+, Evaluation Type: Evaluation A (Pre-1980)
  mutagenic call: active; positive

## CN(C)/N=N/c1nc[nH]c1C(N)=O
[6]
  mutagenic call: active; positive
Species/Cell Type: Drosophila melanogaster, Assay Type: Sex-linked recessive lethal gene mutation, Assay Code: SRL+, Evaluation Type: Evaluation A (Pre-1980)
  mutagenic call: active; positive
[1]
  mutagenic call: active; positive
[7]
  call: active; positive
[8]
  mutagenic call: active; positive

## CNc1nncc2ccccc12
Species/Cell Type: Human, Assay Type: Sister-chromatid exchange (SCE) in vitro, Assay Code: SC1+D, Dose Response: With dose response, Evaluation Type: Evaluation B (Post-1980)
  mutagenic call: active; positive
Species/Cell Type: Nonhuman, Assay Type: Sister-chromatid exchange (SCE) in vivo, Assay Code: SC3+, Evaluation Type: Evaluation B (Post-1980)
  mutagenic call: active; positive

## O=S(=O)(O)c1ccc(N=Nc2c(O)ccc3ccccc23)c2ccccc12
Species/Cell Type: Bacillus subtilis (H17 vs M45), Assay Type: Rec-assay, spot test, DNA effects (bacterial DNA repair), Assay Code: REWT, Evaluation Type: Evaluation A (Pre-1980)
  mutagenic call: no conclusion

## CN=[N+]([O-])Cc1ccc(C(=O)NC(C)C)cc1
[8]
  mutagenic call: active; positive

## NC(=O)N1c2ccccc2C2OC2c2ccccc21 (stereo unspecified)
[9]
  mutagenic call: no conclusion
[3]
  mutagenic call: no conclusion

## C1=Cc2cc3ccc4cccc5ccc(c2CC1)c3c45
Species/Cell Type: Mouse prostate cells, Assay Type: Cell transformation, Assay Code: CTM-, Evaluation Type: Evaluation A (Pre-1980)
  mutagenic call: inactive; negative

## [O-][n+]1ccccc1
[10]
  mutagenic call: active; positive
Species/Cell Type: Escherichia coli polA (W3119 vs P3478), Assay Type: Rec-assay, DNA effects (bacterial DNA repair), Assay Code: RE1-, Evaluation Type: Evaluation A (Pre-1980)
  mutagenic call: inactive; negative

## CC1CN(N=O)C(=O)NC1=O (stereo unspecified)
[11]
  mutagenic call: active; positive

## COc1cc2c(c3oc(=O)c4c(c13)CCC4=O)[C@@H]1C[C@H](O)O[C@@H]1O2
[3]
  mutagenic call: no conclusion

## BrCC1CO1 (stereo unspecified)
Species/Cell Type: Neurospora crassa, Assay Type: Reverse gene mutation, Assay Code: NER+, Evaluation Type: Evaluation A (Pre-1980)
  mutagenic call: active; positive

## O=[N+]([O-])O.[Cr]
[3]
  mutagenic call: no conclusion

## [Cl-].[Cl-].[NH2-].[NH2-].[NH2-].[Pt+2]
[6]
  mutagenic call: active; positive

## Cn1cncc1[N+](=O)[O-]
[11]
  mutagenic call: active; positive

## CCCN(CCC)S(=O)(=O)c1ccc(C(=O)O)cc1
Species/Cell Type: Saccharomyces cerevisiae, Assay Type: Mitotic recombination or gene conversion, Assay Code: YEC-*, Activation: With metabolic activation, Evaluation Type: Evaluation A (Pre-1980)
  mutagenic call: inactive; negative

## Nc1ccc(-c2ccc(N)cc2Cl)c(Cl)c1
Species/Cell Type: Human diploid fibroblasts, Assay Type: Unscheduled DNA synthesis (UDS) in vitro, DNA effects, Assay Code: UDH+*, Activation: With metabolic activation, Evaluation Type: Evaluation A (Pre-1980)
  mutagenic call: active; positive

## CC(=O)c1ccc([N+](=O)[O-])[nH]1
[11]
  mutagenic call: active; positive

## Cc1ccnc2ccccc12
[12]
  mutagenic call: active; positive

## NC1CCCCC1
Species/Cell Type: Drosophila melanogaster, Assay Type: Aneuploidy, whole sex chromosome loss, chromosome aberrations, Assay Code: DACT, Evaluation Type: Evaluation A (Pre-1980)
  mutagenic call: no conclusion
Species/Cell Type: Drosophila melanogaster, Assay Type: Sex-linked recessive lethal gene mutation, Assay Code: SRL-, Evaluation Type: Evaluation A (Pre-1980)
  mutagenic call: inactive; negative
Species/Cell Type: Drosophila melanogaster, Sex: Male, Assay Type: Heritable translocation test, chromosome aberrations, Assay Code: DHT-, Evaluation Type: Evaluation A (Pre-1980)
  mutagenic call: inactive; negative
Species/Cell Type: Escherichia coli polA (W3119 vs P3478), Assay Type: Rec-assay, DNA effects (bacterial DNA repair), Assay Code: RE1T, Evaluation Type: Evaluation A (Pre-1980)
  mutagenic call: no conclusion
Species/Cell Type: Human lymphocytes or leukocytes, Assay Type: Chromosome aberrations in vitro, Assay Code: CY7-, Evaluation Type: Evaluation A (Pre-1980)
  mutagenic call: inactive; negative
Species/Cell Type: Mammalian germ cells, Sex: Male, Assay Type: Chromosome aberrations in vivo, Assay Code: CY9+, Evaluation Type: Evaluation A (Pre-1980)
  mutagenic call: active; positive
Species/Cell Type: Nonhuman bone marrow, Assay Type: Chromosome aberrations, in vivo, Assay Code: CY#-, Evaluation Type: Evaluation A (Pre-1980)
  mutagenic call: inactive; negative
Species/Cell Type: Nonhuman, Assay Type: Chromosome aberrations in vitro, Assay Code: CY&+D, Dose Response: With dose response, Evaluation Type: Evaluation A (Pre-1980)
  mutagenic call: active; positive
Species/Cell Type: Nonhuman, Assay Code: CCGT, Evaluation Type: Evaluation A (Pre-1980)
  call: no conclusion
Species/Cell Type: Rat, Sex: Male, Assay Type: Sperm morphology, Assay Code: SPA+, Evaluation Type: Evaluation A (Pre-1980)
  mutagenic call: active; positive
Species/Cell Type: Rodents, Sex: Male, Assay Type: Dominant lethal test, Assay Code: DLT-, Evaluation Type: Evaluation A (Pre-1980)
  mutagenic call: inactive; negative
[5]
  mutagenic call: no conclusion
Species/Cell Type: Salmonella typhimurium, Serratia marcesens, Assay Type: Forward and reverse gene mutation, host-mediated assay, Assay Code: HM2T, Evaluation Type: Evaluation A (Pre-1980)
  mutagenic call: no conclusion
Species/Cell Type: Syrian hamster embryo (SA7/SHE) cells, Assay Type: Cell transformation, viral enhanced, Assay Code: CT7+, Evaluation Type: Evaluation A (Pre-1980)
  mutagenic call: active; positive

## O=C(CCl)NCO
Species/Cell Type: Mammalian polychromatic erythrocytes, Assay Type: Micronucleus test, chromosome aberrations, Assay Code: MNT+, Evaluation Type: Evaluation B (Post-1980)
  mutagenic call: active; positive

## CC(=O)Nc1c(I)c(NC(C)=O)c(I)c(C(=O)O)c1I
[9]
  mutagenic call: no conclusion
[2]
  mutagenic call: no conclusion

## Nc1c(O)ccc2ccccc12
Species/Cell Type: Escherichia coli polA (W3119 vs P3478), Assay Type: Rec-assay, DNA effects (bacterial DNA repair), Assay Code: RE1+, Evaluation Type: Evaluation A (Pre-1980)
  mutagenic call: active; positive
[3]
  mutagenic call: no conclusion

## CN(C)c1ccc(N=Nc2cccc(CCl)c2)cc1
[13]
  mutagenic call: no conclusion

## c1cc2cc3c4c(ccc5cc6c(c1CCC6)c2c54)CCC3
[12]
  mutagenic call: active; positive

## Cc1ccc(N2CC[N+](C)([O-])CC2)c2c(=O)c3ccc(Cl)cc3sc12
[3]
  mutagenic call: no conclusion

## CCCSP(=S)(OCC)Oc1ccc(SC)cc1 (stereo unspecified)
[14]
  mutagenic call: no conclusion

## ClC(Cl)(Cl)c1ccccc1
[10]
  mutagenic call: active; positive
[7]
  call: active; positive

## C/C=C/C#CC#CC#C/C=C/C(O)CO (stereo unspecified)
[14]
  mutagenic call: no conclusion

## CCS(=O)CCSP(=S)(OC)OC (stereo unspecified)
[13]
  mutagenic call: no conclusion

## CC(C)N(C(=O)CCl)c1ccccc1
[4]
  mutagenic call: active; positive

## OCN1CCN(CO)C1=S
Species/Cell Type: Mammalian polychromatic erythrocytes, Assay Type: Micronucleus test, chromosome aberrations, Assay Code: MNTT, Evaluation Type: Evaluation B (Post-1980)
  mutagenic call: no conclusion

## COc1ccc(O)cc1
Species/Cell Type: Allium cepa, Assay Type: Chromosome aberrations, Assay Code: ALC+, Evaluation Type: Evaluation A (Pre-1980)
  mutagenic call: active; positive
